Key:
RCC356 [1] = target: T1, RCC356 (Homo sapiens, UniProt Q8TCB6); assay: Concentration-response analysis of odorants on Hek293 cells overexpressing RCC356 polypeptide, CRE-luciferase reporter (Dual-Glo); type: cell-based; settings: for EC50: 0.1 μM to 1 mM, CRE-luciferase, read-out: Ec50 of RCC356 activation
T1 construct: expressed in transfected cells; host or cells: Hek293 cells, transient transfection with lipofectamine 2000
T1 sequence (Q8TCB6 1-318): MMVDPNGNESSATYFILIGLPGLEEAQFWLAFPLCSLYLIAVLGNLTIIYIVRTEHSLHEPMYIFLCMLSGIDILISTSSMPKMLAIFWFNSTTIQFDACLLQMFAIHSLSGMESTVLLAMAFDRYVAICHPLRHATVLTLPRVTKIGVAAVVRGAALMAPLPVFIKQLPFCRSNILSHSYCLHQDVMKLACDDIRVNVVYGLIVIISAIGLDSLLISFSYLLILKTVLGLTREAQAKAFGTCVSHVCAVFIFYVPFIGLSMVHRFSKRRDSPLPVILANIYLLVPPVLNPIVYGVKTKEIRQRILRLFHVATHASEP
Description: (§1) To further validate hits found during screenings of 80 odorants on RCC356 overexpressing-Hek293 cells, concentration-response analyses have been performed. Hek293 cells were grown in MEM supplemented with decomplemented FBS at 37° C. under 5% CO2 and 90% humidity. Two days before screening, cells were plated onto 96-well plates (PDL coated plates, Becton-Dickinson). The day after, cells were transfected with a plasmid encoding RCC356 polypeptide along with 2 plasmides encoding firefly luciferase and renilla luciferase respectively. Firefly transcription was driven by a minimum promoter including the CREB-response element (CRE), whereas renilla luciferase was driven by CMV promoter, a strong constitutive promoter. Transfection was performed using lipofectamine 2000 reagent (Invitrogen). Transfected cells were let under standard culture conditions for a further 24 hours, and then process for functional assay.
(§2) First, tested odorants (isovaleric, valeric, propionic, hexanoic, heptanoic, caprilic and pelargonic acids) were dissolved as 1M solutions in DMSO. They were then plated onto 96-well plates at different concentrations ranging from 0.1 μM to 1 mM in HBSS (Cambrex). DMSO represented thereby less than 1% (v/v) of the odorant solutions. Positive controls such as forskolin were included in odorant plates. Forskolin activates production of cAMP that in turn, through binding to CREB transcription factor triggers production of firefly luciferase, the reporter gene of the system. Detected luciferase activity in each well could be thereby expressed as a percent of forskolin response, allowing standardization thereon.
(§3) Functional assay was performed using Dual-Glo luciferase assay Kit according to manufacturer instructions (Promega).

RCC356 [2] = target: T1, RCC356; assay: Screening of 80 odorants on RCC356 overexpressed in Hek293 cells, CRE-luciferase reporter (Dual-Glo); type: cell-based; settings: Hek293 overexpressing RCC356; for RCC356 activation in odorant screening (luciferase activity as percent of forskolin response): odorants plated as 200 μM solutions in HBSS, two independent screenings; for hit found in both independent screenings: two independent screenings of 80 odorants
Description: as §1, with “Hek293” for “To further validate hits found during screenings of 80 odorants on RCC356 overexpressing-Hek293 cells, concentration-response analyses have been performed. Hek293”
as §2, with “Odorants” for “First, tested odorants (isovaleric, valeric, propionic, hexanoic, heptanoic, caprilic and pelargonic acids)”, “as 200” for “at different concentrations ranging from 0.1”, “solutions” for “to 1 mM”
as §3

| Structure (SMILES) | EC50 (RCC356 [1]) [µM] | RCC356 activation in odorant screening (luciferase activity as percent of forskolin response) (RCC356 [2]) | hit found in both independent screenings (RCC356 [2]) | efficiency of ligand on RCC356 activation (RCC356 [1]; percent of forskolin response (FIG. 3A)) |
| --- | --- | --- | --- | --- |
| CCCCCCCC(=O)O [caprilic acid, caprylic acid] | 329 | seemed to lead to RCC356 activation | – | – |
| CCCCCC(=O)O [caproic acid] | 91 | seemed to lead to RCC356 activation | – | – |
| CCCCCCC(=O)O [oenanthylic acid] | 260 | seemed to lead to RCC356 activation | – | – |
| CCCCCCCCC(=O)O [pelargonic acid] | 643 | seemed to lead to RCC356 activation | – | – |

Other lines, results leading:

| EC50 (RCC356 [1]) [µM] | RCC356 activation in odorant screening (luciferase activity as percent of forskolin response) (RCC356 [2]) | hit found in both independent screenings (RCC356 [2]) | efficiency of ligand on RCC356 activation (RCC356 [1]; percent of forskolin response (FIG. 3A)) | Structure (SMILES) |
| --- | --- | --- | --- | --- |
| 485 | – | – | – | C=CCCCC(=O)O [5-hexenoic acid] |
| 104 | – | – | – | O=C(O)C1CCCCC1 [hexahydrobenzoic acid] |
| 25 | seemed to lead to RCC356 activation | found in both screening | most efficient ligand | CC(C)CC(=O)O [isovaleric acid] |
| – | seemed to lead to RCC356 activation | – | – | CCC(=O)O [propionic acid] |
| 97 | seemed to lead to RCC356 activation | found in both screening | – | CCCCC(=O)O [valeric acid] |
